Literature values, collected in patent publication US20220117919A1, “ENHANCED BIOAVAILABILITY OF N-(2,6-BIS(1-METHYLETHYL)PHENYL)-N'-((1-(4-(DIMETHYLAMINO)-PHENYL)CYCLOPENTYL)METHYL)UREA HYDROCHLORIDE” (The Regents of the University of Michigan, priority 2015, published 2022).

System: adrenocortical carcinoma (ACC)
Details: cited from earlier work

Clc1ccc(C(c2ccccc2Cl)C(Cl)Cl)cc1 (centres unmarked) [mitotane]
average delay of disease progression (ACC patients that derive a therapeutic benefit): five
share of patients with increased progression-free survival (ACC patients): one-quarter to one-third
